Measurements from patent publication US11028084B2, “Selective inhibitors of gentotoxic steress-induced IKK/NF-κB pathways” (Max-Delbrück-Centrum für Molekulare Medizin in der …, priority 2016, dated 2021).

Columns and labels:
[1] = system: ATM cytoplasmic translocation; experiment: ATM relocalisation upon DNA DSB, immunofluorescence, U2OS cells; assay type: cell-based, human
Protocol: FIG. 7: Cytoplasmic accumulation of ATM. (A) Fractionation experiment with separated nuclear extracts (NE) and cytoplasmic extracts (CE). PARP1 and LDH staining served as loading and fractionation controls. Cells were pre-treated with DMSO or MW01 (5 μM) prior to irradiation and cell harvesting at indicated times. NE and CE were subjected to SDS-PAGE/WB procedure. (B) U2OS cells were seeded on cover slips 2 days before treatment. The cells were pre-treated with solvent DMSO alone or with MW01 prior to irradiation, cell fixation and subsequent immunofluorescence staining.
For immunofluorescence staining 0.95×10^5 cells were seeded in 6 well plates onto autoclaved cover slips. Cellular confluency dictated to beginning of the experiment (2-3 days from seeding). After conduction of experiments cells were washed with PBS and fixed with 4% PFA/double-distilled H2O (ddH2O) for 10 min at RT. Following two additional washing steps cells were incubated with a solution containing 0.12% glycine/0.2% saponin in PBS for 10 min and then blocked with a solution containing 10% FCS/0.2% saponin in PBS for 1 h. Primary antibody incubation was performed overnight at 4° C. (1:500 diluted in 0.2% saponin in PBS). The next day, cover slips were washed five times with a solution containing 0.2% saponin in PBS. […]

HEK293 cells = experiment: Percentage of viable cells, annexin V / propidium-iodide exclusion, flow cytometry, HEK293 cells; assay type: cell-based, human
Protocol: (§1) FIG. 16: (A) U2OS cells were pre-treated with DMSO or MW01 and irradiated. Cells were lysed 8 h post γ-IR and were used for western blotting and immunochemical staining. (B) HEK293 cells were pre-treated with DMSO or MW01 and irradiated. After 48 h cells were fixed and stained with crystal violet. Dissolved crystal violet was used for absorbance measurement in a visible light spectrophotometer at a wavelength of 595 nm. (C) HEK293 cells were pre-treated with DMSO or MW01 and irradiated. The percentage of viable cells within the population was calculated by exclusion of annexin V and propidium-iodide positive cells measured by flow cytometry. (D) MEF cells were pre-treated with DMSO or MW01 and irradiated. Cells were used for annexin V staining 24 h and 48 after γ-IR. Percentage of annexin V positive cell population was analysed using a flow cytometer. (E) Experiment done as shown in (D) but with HT1080 cells processed 8 h after irradiation. Statistical significance was calculated using students t-test.
Cells were washed with ice-cold PBS and detached from growing dishes using Trypsin/EDTA solution. Detached cells were centrifuged at 300×g for 5 min. Detection of early apoptotic cells was performed by staining with annexin V-FITC antibody according to manufacturer's instructions (eBioscience Annexin V-FITC Apoptosis detection Kit). […]

[2] = biological target: nuclear IKKγ-PIASy-PARP1-ATM signalosome (Homo sapiens, UniProt P09874+Q13315+Q8N2W9+Q9Y6K9); experiment: Nuclear PARP1-signalosome formation, co-immunoprecipitation, HepG2 cells; assay type: cell-based; set-up: endogenous in cells
Chain of nuclear IKKγ-PIASy-PARP1-ATM signalosome (Q9Y6K9 whole entry): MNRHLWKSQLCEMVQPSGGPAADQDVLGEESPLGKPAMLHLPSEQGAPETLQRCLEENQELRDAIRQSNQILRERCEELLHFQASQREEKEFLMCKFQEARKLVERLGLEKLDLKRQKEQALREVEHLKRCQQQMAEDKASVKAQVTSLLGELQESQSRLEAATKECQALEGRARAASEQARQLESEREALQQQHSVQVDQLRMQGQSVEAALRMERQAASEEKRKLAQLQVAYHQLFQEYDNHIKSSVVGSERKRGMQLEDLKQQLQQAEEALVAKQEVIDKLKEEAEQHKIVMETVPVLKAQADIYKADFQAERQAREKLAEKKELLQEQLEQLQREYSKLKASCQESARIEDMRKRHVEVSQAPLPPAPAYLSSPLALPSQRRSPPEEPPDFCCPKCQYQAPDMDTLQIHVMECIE
Chain of nuclear IKKγ-PIASy-PARP1-ATM signalosome (Q8N2W9 2-510 limits assumed): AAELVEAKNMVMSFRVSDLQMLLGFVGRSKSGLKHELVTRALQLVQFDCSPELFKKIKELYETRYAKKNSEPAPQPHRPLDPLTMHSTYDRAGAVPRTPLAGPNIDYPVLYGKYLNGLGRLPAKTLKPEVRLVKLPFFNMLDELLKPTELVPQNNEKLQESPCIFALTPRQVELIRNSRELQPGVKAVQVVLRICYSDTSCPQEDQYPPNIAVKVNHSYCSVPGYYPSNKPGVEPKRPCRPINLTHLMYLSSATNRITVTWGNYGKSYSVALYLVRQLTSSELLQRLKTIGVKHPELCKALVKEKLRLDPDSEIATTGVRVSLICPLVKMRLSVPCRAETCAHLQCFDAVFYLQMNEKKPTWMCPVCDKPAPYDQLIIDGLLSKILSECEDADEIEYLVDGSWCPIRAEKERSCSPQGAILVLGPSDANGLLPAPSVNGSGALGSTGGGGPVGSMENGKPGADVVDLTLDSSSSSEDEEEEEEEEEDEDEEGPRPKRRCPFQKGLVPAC
Chain of nuclear IKKγ-PIASy-PARP1-ATM signalosome (P09874 2-1014 limits assumed): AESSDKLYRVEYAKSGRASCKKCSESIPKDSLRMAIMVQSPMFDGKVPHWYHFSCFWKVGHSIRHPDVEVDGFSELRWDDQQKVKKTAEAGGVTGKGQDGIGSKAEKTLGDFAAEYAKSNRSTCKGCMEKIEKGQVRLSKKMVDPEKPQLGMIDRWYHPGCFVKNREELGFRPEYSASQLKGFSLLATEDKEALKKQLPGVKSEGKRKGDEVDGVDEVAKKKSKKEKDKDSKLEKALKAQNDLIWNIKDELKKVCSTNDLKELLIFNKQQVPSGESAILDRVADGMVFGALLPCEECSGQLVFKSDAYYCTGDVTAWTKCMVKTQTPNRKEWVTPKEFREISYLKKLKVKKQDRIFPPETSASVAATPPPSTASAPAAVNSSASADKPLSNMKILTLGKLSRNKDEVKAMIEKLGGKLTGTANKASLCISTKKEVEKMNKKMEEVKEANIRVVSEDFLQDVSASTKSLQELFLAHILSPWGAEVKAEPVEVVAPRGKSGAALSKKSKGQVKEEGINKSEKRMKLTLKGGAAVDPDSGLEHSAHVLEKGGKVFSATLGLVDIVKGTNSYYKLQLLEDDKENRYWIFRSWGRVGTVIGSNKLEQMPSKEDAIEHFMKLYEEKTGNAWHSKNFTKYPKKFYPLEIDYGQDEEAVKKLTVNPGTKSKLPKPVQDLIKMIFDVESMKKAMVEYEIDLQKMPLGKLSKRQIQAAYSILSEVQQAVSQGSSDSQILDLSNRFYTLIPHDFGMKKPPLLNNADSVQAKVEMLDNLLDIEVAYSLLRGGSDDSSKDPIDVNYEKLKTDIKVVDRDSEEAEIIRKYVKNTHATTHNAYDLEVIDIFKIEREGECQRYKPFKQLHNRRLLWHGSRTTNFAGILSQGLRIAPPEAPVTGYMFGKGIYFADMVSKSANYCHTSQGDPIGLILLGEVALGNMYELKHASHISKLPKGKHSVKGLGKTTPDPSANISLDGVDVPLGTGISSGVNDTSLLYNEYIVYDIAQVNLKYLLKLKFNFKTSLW
Chain of nuclear IKKγ-PIASy-PARP1-ATM signalosome (Q13315 2-3056 limits assumed): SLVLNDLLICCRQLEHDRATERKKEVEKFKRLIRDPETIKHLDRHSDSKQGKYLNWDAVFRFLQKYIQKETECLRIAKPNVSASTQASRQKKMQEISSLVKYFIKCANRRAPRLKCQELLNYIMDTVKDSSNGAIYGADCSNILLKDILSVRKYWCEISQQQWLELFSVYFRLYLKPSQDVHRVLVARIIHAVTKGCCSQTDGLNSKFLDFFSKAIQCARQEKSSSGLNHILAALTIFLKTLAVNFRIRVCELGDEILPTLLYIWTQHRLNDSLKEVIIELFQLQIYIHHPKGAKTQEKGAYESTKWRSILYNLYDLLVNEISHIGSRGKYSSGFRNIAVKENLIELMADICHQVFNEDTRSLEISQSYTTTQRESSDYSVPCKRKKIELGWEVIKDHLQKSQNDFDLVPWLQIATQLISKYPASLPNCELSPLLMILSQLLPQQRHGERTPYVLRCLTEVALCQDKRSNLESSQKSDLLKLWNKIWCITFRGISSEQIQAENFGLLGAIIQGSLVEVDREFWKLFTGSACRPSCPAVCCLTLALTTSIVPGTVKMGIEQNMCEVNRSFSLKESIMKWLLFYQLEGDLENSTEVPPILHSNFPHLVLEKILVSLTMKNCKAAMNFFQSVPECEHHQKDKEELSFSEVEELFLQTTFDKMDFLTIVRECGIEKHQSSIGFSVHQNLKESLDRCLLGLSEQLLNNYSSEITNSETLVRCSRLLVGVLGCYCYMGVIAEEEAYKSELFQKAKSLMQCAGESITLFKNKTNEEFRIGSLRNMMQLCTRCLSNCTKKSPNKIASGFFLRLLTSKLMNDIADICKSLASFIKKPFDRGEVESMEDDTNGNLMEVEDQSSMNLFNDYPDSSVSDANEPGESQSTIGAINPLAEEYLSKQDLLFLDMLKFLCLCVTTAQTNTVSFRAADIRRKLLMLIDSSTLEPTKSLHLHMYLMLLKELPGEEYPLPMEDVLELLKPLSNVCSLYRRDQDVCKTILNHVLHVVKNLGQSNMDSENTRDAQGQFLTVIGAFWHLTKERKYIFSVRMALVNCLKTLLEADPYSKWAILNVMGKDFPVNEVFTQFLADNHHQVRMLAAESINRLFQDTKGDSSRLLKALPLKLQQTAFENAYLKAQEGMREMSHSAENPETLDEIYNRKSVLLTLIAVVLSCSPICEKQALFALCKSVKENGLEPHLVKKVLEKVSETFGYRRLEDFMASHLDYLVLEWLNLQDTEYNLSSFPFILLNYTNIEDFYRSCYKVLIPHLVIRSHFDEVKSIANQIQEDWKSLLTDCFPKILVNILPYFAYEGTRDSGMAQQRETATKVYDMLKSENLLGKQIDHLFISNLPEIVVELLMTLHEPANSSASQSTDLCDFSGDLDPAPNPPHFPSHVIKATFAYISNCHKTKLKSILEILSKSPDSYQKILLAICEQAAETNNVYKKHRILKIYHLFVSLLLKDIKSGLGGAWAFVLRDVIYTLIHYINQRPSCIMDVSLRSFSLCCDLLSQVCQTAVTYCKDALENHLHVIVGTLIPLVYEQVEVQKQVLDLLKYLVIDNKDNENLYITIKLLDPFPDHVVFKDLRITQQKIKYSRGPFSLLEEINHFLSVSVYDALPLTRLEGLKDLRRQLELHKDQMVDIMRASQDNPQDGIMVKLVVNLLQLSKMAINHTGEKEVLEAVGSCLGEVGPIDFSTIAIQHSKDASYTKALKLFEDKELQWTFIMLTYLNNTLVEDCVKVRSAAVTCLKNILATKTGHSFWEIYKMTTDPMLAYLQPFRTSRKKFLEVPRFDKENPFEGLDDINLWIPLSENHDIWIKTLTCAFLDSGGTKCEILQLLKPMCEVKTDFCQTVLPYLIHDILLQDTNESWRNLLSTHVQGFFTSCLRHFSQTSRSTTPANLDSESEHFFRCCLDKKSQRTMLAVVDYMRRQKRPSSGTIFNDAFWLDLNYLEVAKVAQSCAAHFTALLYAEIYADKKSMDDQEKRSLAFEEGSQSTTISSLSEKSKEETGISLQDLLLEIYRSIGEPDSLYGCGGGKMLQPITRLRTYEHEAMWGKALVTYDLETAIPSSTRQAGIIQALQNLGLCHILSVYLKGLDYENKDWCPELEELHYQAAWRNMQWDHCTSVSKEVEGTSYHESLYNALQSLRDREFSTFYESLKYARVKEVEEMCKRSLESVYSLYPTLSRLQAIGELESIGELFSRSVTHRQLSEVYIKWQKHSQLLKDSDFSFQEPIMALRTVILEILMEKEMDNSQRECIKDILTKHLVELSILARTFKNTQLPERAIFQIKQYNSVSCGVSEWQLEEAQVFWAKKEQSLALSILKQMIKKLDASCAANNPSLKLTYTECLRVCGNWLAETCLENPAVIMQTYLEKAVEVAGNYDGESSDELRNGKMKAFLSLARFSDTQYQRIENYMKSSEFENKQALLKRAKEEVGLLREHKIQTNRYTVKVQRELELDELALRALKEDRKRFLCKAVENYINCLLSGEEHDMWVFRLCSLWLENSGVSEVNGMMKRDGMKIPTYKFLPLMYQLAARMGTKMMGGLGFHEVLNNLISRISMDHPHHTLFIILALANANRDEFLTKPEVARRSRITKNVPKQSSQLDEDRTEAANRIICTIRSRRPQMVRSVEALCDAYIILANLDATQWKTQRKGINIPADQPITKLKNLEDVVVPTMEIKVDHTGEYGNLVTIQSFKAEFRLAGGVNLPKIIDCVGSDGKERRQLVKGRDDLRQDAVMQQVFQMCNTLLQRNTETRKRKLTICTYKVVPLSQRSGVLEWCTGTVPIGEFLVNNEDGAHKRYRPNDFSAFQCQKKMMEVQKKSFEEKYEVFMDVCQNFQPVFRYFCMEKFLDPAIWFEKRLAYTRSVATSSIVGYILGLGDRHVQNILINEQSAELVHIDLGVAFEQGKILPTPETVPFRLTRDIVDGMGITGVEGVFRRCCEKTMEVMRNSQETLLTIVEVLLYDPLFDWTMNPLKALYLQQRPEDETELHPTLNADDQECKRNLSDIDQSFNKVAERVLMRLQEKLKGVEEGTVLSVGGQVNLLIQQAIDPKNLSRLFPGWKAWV
Protocol: FIG. 8: (A) HepG2 cells were pre-treated with DMSO or MW01 and irradiated. Nuclear cell extracts (NE) were used for PIASy immunoprecipitation (IP). Western blot membranes were incubated with indicated antibodies. (B) Experiment as shown in (A), but with IKKγ IP. (C) Experiment as shown in (B), but done in HEK293 cells. (D) Experiment done as shown in […], but repeated in MEF cells.
Following cell lysis the protein concentration of samples was determined. For input controls, 40 μg lysate were mixed with 6×SDS-buffer and denatured by heating to 95° C. for 4 min. Approximately 1500 μg protein lysate was used for pulldown and samples volumes were equalled with lysis buffer. Lysates were precleared with 30 μl sepharose A or sepharose G beads (depending on the antibody type used for pulldown) for 30 min, and centrifuged for 5 min at 1,500×g. The supernatant was transferred to a new reaction tube. Primary antibody (2-2.5 μg) was added to the cleared lysate for immunoprecipitation overnight while rotating at 4° C. The next day 30 μl sepharose beads per sample were used for immobilisation of antibodies. Following 4 washes with IP wash buffer precipitated proteins were eluted by mixing with 3×SDS-buffer and heating to 95° C. for 4 min.

[3] = system: TNFα-induced NF-κB activation; experiment: p65 S536 phosphorylation after TNFα stimulation, SDS-PAGE/WB, U2OS cells; assay type: cell-based, human; settings: 10 μM and 20 μM
Protocol: FIG. 4: (A) U2OS cells were pre-treated with increasing concentrations of MW01 in triplicates in a 384 well plate. Then, cells were treated with TNFα, fixed and subjected to IF staining of p65. Spatial measurement of p65 cytosolic and nuclear signals was used for the calculation of p65 translocation rates. (B) U2OS cells were pre-treated with MW01 at concentrations of 10 or 20 μM and stimulated with TNFα. Cell lysates were subjected to SDS-PAGE/WB. (C) HEK293 cells were pre-treated with DMSO or MW01 followed by administration of etoposide or TNFα. Cell lysates were used for EMSA.
(§2) For the activation of the canonical NF-κB pathway cells were treated with recombinant human TNFα (10 ng/ml) or IL-1β (10 ng/ml) for 20-30 min at 37° C.

U2OS cells = experiment: Caspase-3-dependent cleavage of PARP1, WB, U2OS cells; assay type: cell-based, human
Protocol: as §1

HT1080 cells = experiment: Annexin V staining, flow cytometry, HT1080 cells; assay type: cell-based; settings: HT1080, 10 Gy
Protocol: as §1
Cells were washed with ice-cold PBS and detached from growing dishes using Trypsin/EDTA solution. Detached cells were centrifuged at 300×g for 5 min. […]
In addition, the sensitising effect of NF-κB inhibition was tested in HT1080 cells. After pre-treatment with DMSO or MW01, cells were irradiated with a dose of 10 Gy and analysed by annexin V staining.

[4] = system: IL-1β-induced NF-κB activation; experiment: IL-1β-stimulated NF-κB activation, SDS-PAGE/WB and EMSA, U2OS cells; assay type: cell-based, human
Protocol: FIG. 5: (A) U2OS cell were pre-treated with MW01 followed by stimulation with IL-1p. Cell lysates were used for SDS-PAGE/WB and EMSA. (B) Cells pre-treated with increasing concentrations MW01 were stimulated with IL-1p. Cell lysates were used for SDS-PAGE/WB and stained with indicated antibodies.
as §2

COc1ccc2c(c1OC)c(=O)n1c3ccc(O)cc3c3ccnc2c31 [MW01, 12-hydroxy-6,7-dimethoxy-8H-benzo[c]indolo[3,2,1-ij][1,5]naphthyridin-8-one]
ATM localisation after irradiation (IF) [1]: predominantly localized within the nucleus
less viable cells after irradiation (HEK293 cells; HEK293, after irradiation): ~17%
percentage of viable cells compared to the DMSO control (HEK293 cells; HEK293, non-irradiated): slightly reduced
co-immunoprecipitation of PARP1 with IKKγ ([2]; HepG2, IKKγ IP): not co-immunoprecipitated
γ-irradiation-induced Co-IP of phosphorylated ATM-51981 species with PIASy ([2]; HepG2 nuclear extracts, PIASy IP): lost after pre-treatment with MW01
p65 S536 phosphorylation after TNFα [3]: no effect
PARP1 cleavage (U2OS cells; 8 h post γ-IR): strongly increased
PARP1 cleavage (U2OS cells; resting cells): slight increase
population of early apoptotic cells (HT1080 cells): roughly doubled
annexin V staining compared to the irradiated control (HT1080 cells; 8 h after irradiation): significant increase
p65 S536 phosphorylation following IL-1β stimulation ([4]; U2OS): neither inhibited p65 S536 phosphorylation
IKK activation and p65 S536 phosphorylation after IL-1β at high concentrations ([4]; up to 100 μM): no effect on the phosphorylation state of IKK or p65
